Entries after “also recorded” stand apart in the source; their conditions may differ.
Key:
[1] = system: rats with lesions of the fornix; experiment: Inhibitory Avoidance (IA) task in rats with lesions of the fornix (amnesic rats); format: in vivo, rat; settings: 5 mg/kg, tested one hour after injection
Excerpt: Applicants have previously described an animal model for studying fornix-mediated memory consolidation. See, for example, Taubenfield et al., Supra. The fornix-lesioned animals can be used for drug screening, e.g., to identify dosages of the subject compositions which enhance memory consolidation. The lesioned mammal can have a lesion of the fornix or a related brain structure that disrupts memory consolidation (e.g., perirhinal cortex, amygdala, medial septal nucleus, locus coeruleus, hippocampus, mammillary bodies). Lesions in the mammal can be produced by mechanical or chemical disruption. For example, the fornix lesion can be caused by surgical ablation, electrolytic, neurotoxic and other chemical ablation techniques, or reversible inactivation such as by injection of an anesthetic, e.g., tetrodotoxin or lidocaine, to temporarily arrest activity in the fornix.
In one embodiment, the animal can be a rat. Briefly, the animals are anesthetized, e.g., with intraperitoneal injections of a ketamine-xylazine mixture and positioned in a Kopf stereotaxic instrument. A sagittal incision is made in the scalp and a craniotomy is performed extending 2.0 mm posterior and 3.0 mm lateral from Bregma. […]

IA memory in the rat = experiment: Inhibitory Avoidance (IA) task, retention latency in normal rats; format: in vivo
Method: An exemplary passive avoidance test utilizes an apparatus that consists of a lit chamber that can be separated from a dark chamber by a sliding door. At training, the animal is placed in the lit chamber for some period of time, and the door is opened. The animal moves to the dark chamber after a short delay—the latency—that is recorded. Upon entry into the dark chamber, the door is shut closed and a foot shock is delivered. Retention of the experience is determined after various time intervals, e.g., 24 or 48 hours, by repeating the test and recording the latency. The protocol is one of many variants of the passive avoidance procedures (for review, see Rush (1988) Behav Neural Biol 50:255).
The Inhibitory Avoidance (IA) task is a well-studied behavioral paradigm which can provide the researcher with a consistent and long-lasting measure of memory. The paradigm consists of one training trial and one retention trial. Test articles may be administered to the rats either before or after training. Improved memory, as a result of test compound administration, is evident as increased latency on the retention trial. The objective of the following experiments was to investigate the effects of methylphenidate on IA memory in the rat.
In this experiment, rats were injected with three different doses of methylphenidate thirty minutes prior to training on the IA task.
Rats were injected with 5 mg/kg of methylphenidate and trained on the IA task.
In this experiment, the time of drug administration was varied in order to determine the optimal pre-training drug administration time.
This experiment was conducted in order to determine whether the enhanced retention observed in Experiment 2 was long-lasting. Rats received a second retention test one week after the first retention test. No additional training or drug was administered to the animals in the interim period.
In the next experiment, we investigated whether the performance of amnesic rats could be improved by administration of methylphenidate. In this experiment, control rats and rats with lesions of the fornix received injections of either saline or methylphenidate (5 mg/kg), and one hour later, were tested on the IA task.

Question: Which results are given for `COC(=O)C(c1ccccc1)C1CCCCN1` (stereo not drawn) [methylphenidate, methyl α-phenyl-2-piperidineacetate]?
Answer: IA performance of fornix lesion rats (FIG. 3) [1]: appeared to improve; also recorded: not significantly different from normal, saline injected animals; IA performance of normal rats (FIG. 3) (IA memory in the rat; normal control rats, 5 mg/kg, tested one hour after injection, post hoc p<0.05, 5 mg/kg): dramatically enhanced; also recorded: significantly enhanced relative to all other experimental groups; retention on the IA task (FIG. 1) (IA memory in the rat; rats, 5 mg/kg injected thirty minutes prior to training): improved retention; optimal pre-training drug administration time (IA memory in the rat; rats, 5 mg/kg, time of administration varied): most effective when administered to the rats one hour prior to training; retention of the IA task, verifying experiment (FIG. 2) (IA memory in the rat; rats, 5 mg/kg, unpaired t-test p<0.03): significantly improved retention; retention on the IA task (FIG. 1) (IA memory in the rat; rats, 10 mg/kg injected thirty minutes prior to training): no effect; retention on the IA task (FIG. 1) (IA memory in the rat; rats, 15 mg/kg injected thirty minutes prior to training): no effect; long-term retention, second retention test (IA memory in the rat; rats, one week after the first retention test, no additional training or drug, t(54)=2.358, p<0.0220): still significantly enhanced
